Reference: paper PMC3414448 (PLoS ONE, 2012)
Where “and” joins values, the source holds several entries; their conditions need not be identical. Equal entries are not always repeated. Where two headings read alike, the source gives them in different places.

Key:
[1] = system: undifferentiated Caco-2 cells
[2] = system: differentiated Caco-2 cells
[3] = system: 8-hydroxydeoxyguanosine (8-OHdG); test: cells; conditions: Homo sapiens, Caco-2, 24 h, read-out: EC50 8-OHdG nuclear staining
[4] = system: phosphorylated histone variant H2AX (γ-H2AX); test: cells; conditions: Homo sapiens, Caco-2, 24 h, read-out: EC50 γ-H2AX nuclear staining
[5] = system: 8-hydroxydeoxyguanosine (8-OHdG)
[6] = system: phosphorylated histone variant H2AX (γ-H2AX)
[7] = system: 8-hydroxydeoxyguanosine (8-OHdG); remark: listed apart in the source
[8] = system: phosphorylated histone variant H2AX (γ-H2AX); remark: listed apart in the source

Compound: CO[C@@]12[C@H](COC(N)=O)C3=C(C(=O)C(C)=C(N)C3=O)N1C[C@@H]1N[C@@H]12 [MMC, mitomycin C]
- Cell Count (%Control) (CHO-K1 cells): 98.56 %Control and 101.70 %Control and 91.11 %Control
- Cell Count (%Control) (A549 cells): 98.78 %Control and 95.22 %Control and 78.78 %Control

Compound: C=C(C)[C@H]1Cc2c(ccc3c2O[C@@H]2COc4cc(OC)c(OC)cc4[C@@H]2C3=O)O1 [Rotenone, rotenone]
- concentration at which nuclear area was significantly increased ([1]; undifferentiated Caco-2, 24 hr, p<0.05): all rotenone concentrations
- cytotoxicity in differentiated cells [2]: Neither rotenone nor peroxide induced cytotoxicity
- EC50 [3]: 990 nM
- EC50 [4]: 1100 nM

Compound: OO [Peroxide, hydrogen peroxide]
- concentration at which nuclear area was significantly increased [1]: ≥ 100 µM
- cytotoxicity in differentiated cells [2]: Neither rotenone nor peroxide induced cytotoxicity
- concentration at which 8-OHdG staining was significantly increased [5]: not statistically significant
- EC50 ([5]; read-out: EC50 8-OHdG nuclear staining): 5500 nM
- concentration at which γ-H2AX staining was significantly increased [6]: 300 µM
- γ-H2AX staining at non-cytotoxic concentrations [6]: increased γ-H2AX staining at the highest non-cytotoxic concentration (100 µM)
- concentration at which 8-OHdG was significantly increased [7]: 100 µM
- concentration at which γ-H2AX staining was increased [8]: 1000 µM
